In US20230233584A1, “EXTENDED RELEASE 5-HT RECEPTOR AGONISTS FOR NEUROLOGICAL CONDITIONS” (Diamond Therapeutics Inc., priority 2020, published 2023):

How the values were obtained:
Format in all cases: in vivo
Long Evans rats [1] = experiment: 5-choice serial reaction time task (5CSRTT), acute dosing, standard conditions; conditions: for pro-cognitive effect measured as % hit: p=0.05
Description: (§1) General: Experiments were conducted to test psilocybin doses in the range of 0.01-0.2 mg/kg psilocybin administered S.C. across progressive ratio (PR) and 5-choice serial reaction time task (5CSRTT) to examine the effect of psilocybin on endophenotypes of motivation and attention. In each study, a population of out-bred Long Evans rats was first tested as a group for response to the PR and 5CSRTT. Each group was then divided into subgroups by tertiles according to performance, and then exposed to various dose levels immediately prior to re-testing at various psilocybin dose levels.
The 5CSRTT involves evaluating test subject response to a brief visual stimulus (Higgins, Guy & Silenieks, Leonardo. (2017). Rodent Test of Attention and Impulsivity: The 5-Choice Serial Reaction Time Task: The 5-Choice Serial Reaction Time Task. 10.1002/cpph.27). Animals are trained to make a nose-poke response to a stimulus location in order to collect a food reward. The task allows the experimenter to measure animal performance in multiple domains including: • Attention • Impulsivity • Perseveration • Speed of response
A strength of the test is its flexible configuration to challenge test subjects: • Standard test conditions (0.75 s stimulus duration (SD), 5 s inter-trial interval (ITI), 100 trials) • Multiple short stimulus duration (mSD) (0.03-1 s SD) • Fixed long ITI (5 s vs. 10 s ITI) • Multiple ultrashort ITI (2-5 s ITI) • Extended 250 trials
Asterisk (*) indicates statistical significance vs. vehicle. (FIG. 3A).
When this population is segmented into tertiles according to performance based on accuracy (% correct, calculated as # correct/(# correct+# incorrect)*100), the lowest performing tertile (N=8) are considered to be low attentive and potentially representative of a low attentive endophenotype of depression (FIG. 6A). Low attentive rats also score poorly on % hit (FIG. 6B) and have a slower response speed (FIG. 6D). […] Asterisk (*) indicates statistical significance vs. vehicle.

Long Evans rats [2] = experiment: Progressive ratio (PR) test, Study A; conditions: for food responding: low responder subgroup
Description: as §1
(§2) The PR test is used to answer how willing the test subject is to work for food (i.e. test of motivation). A single 45 mg food pellet (i.e. reinforcer) is made available to the test animal based on lever press response. To obtain each successive pellet, the animal must make increasingly more lever presses. Typically, a progression of 2, 4, 6, 9, 12, 15, 20, 25, 32, 40, 50, 62, 77, 95, 118, etc. is used, derived from the equation:
(§3) ratio=[5×e^(0.2×reinforcer #)−5]
(§4) At some point, the animal gives up as the motor demands to obtain a single pellet are not deemed worthwhile (i.e. animal reaches “break point” defined as animal's failure to earn a food pellet in 20 minutes).
Study A: Psilocybin was administered to rats S.C. at doses of 0.05, 0.1 and 0.2 mg/kg.
Rats were then sub-grouped into tertiles based on the number of lever presses for food at baseline, so that within the test population of 36 animals, 12 animals were identified as low responders, characterized by low motivation and potentially corresponding to low motivation endophenotype representative of clinical depression. Twelve animals were identified as high responders. There was a statistically significant difference between the high and low responders. […] This represents a motivational enhancing effect of psilocybin at the 0.05 mg/kg dose in the cohort corresponding to a low motivation endophenotype representative of clinical depression.

5-HT2A receptor activity = experiment: Dose finding: behavioral syndrome, wet dog shakes (WDS) and back muscle contractions (BMC); conditions: rats
Description: Psilocybin was tested at a dose range of 0.03-10.0 mg/kg administered subcutaneously (S.C.) Behavioral syndrome including wet dog shakes (WDS) and back muscle contractions (BMC) are characteristic of 5-HT2A receptor activity and potentially indicative of psychomotor signs. […] There is a parallel between behaviors such as WDS in rats and hallucination in humans (Behavioral Neurobiology of Psychedelic Drugs, Halberstadt, Adam, Vollenweider, Franz X., Nichols, David E. (Eds.), Springer, 2018, p 161).

Long Evans rats [3] = experiment: Progressive ratio (PR) test, Study B
Description: as §1, §2, §3, §4
Study B: Based on Study 1 outcome, a follow-up PR study was conducted utilizing a larger cohort size (72 rats total), and incorporating a lower dose of psilocybin (0.025 mg/kg SC) (FIG. 2C and FIG. 2D). […] Separation of rats based on the lowest average break point recorded over the 7 days prior to testing identified a “low responder” subgroup of N=24 rats. […] There was no treatment effect on session duration (F3,69=2.4; P=0.07, NS), although there was trend for this to be increased at the 0.1 mg/kg dose (Veh: 15.1+2.0 min; Psilo 0.1 mg/kg: 18.7+2.5 min).

[4] = 0.05 mg/kg S.C., 24 rats, standard conditions
[5] = 0.05-0.1 mg/kg S.C., standard conditions
[6] = 0.025-0.1 mg/kg SC, all 72 rats

## CN(C)CCc1c[nH]c2cccc(OP(=O)(O)O)c12 [psilocybin, 4-phosphoryloxy-N,N-dimethyltryptamine]
Long Evans rats [1]; [4]
  procognitive effect measured as % correct: slight non-significant increase
  pro-cognitive effect measured as % hit: increased
Long Evans rats [1]; 0.05 mg/kg and 0.1 mg/kg S.C., low performers
  pro-cognitive effect measured as % hit: increased
Long Evans rats [1]; 0.05 mg/kg, low attentive cohort compared with vehicle
  response speed: increased response speed
Long Evans rats [1]; [5]
  performance: response speed, number of trials completed: no effect on response speed, or number of trials completed
  premature or perseverative responses: no effect on premature or perseverative responses
Long Evans rats [1]; 0.05 and 0.1 mg/kg S.C., low performers
  pro-cognitive effect measured as % correct: slight non-significant increase
Long Evans rats [1]; 0.05 and 0.1 mg/kg, low attentive subgroup (N=8) compared with vehicle
  effect on accuracy (% correct and % hit): strongly evident
Long Evans rats [1]; low doses used in PR and 5CSRTT studies (0.025-0.2 mg/kg S.C.)
  detrimental effects on performance (motivation, motor control, attention, response speed): no detrimental effects
Long Evans rats [2]; 0.05 mg/kg
  food responding: increase in food responding
Long Evans rats [2]; 0.05 mg/kg, low responders, P<0.05 vs. vehicle
  number of lever presses and break point: significant increase
Long Evans rats [2]; 0.05 mg/kg, low responders, P=0.07 vs. vehicle
  session duration: 10.8 ± 1.9 min
Long Evans rats [2]; 0.1 mg/kg
  food responding: did not produce an increase in food responding
Long Evans rats [2]; 0.05, 0.1 and 0.2 mg/kg S.C., entire study population of 36 rats
  number of lever presses or break points: None of these doses were observed to cause obvious changes
Long Evans rats [2]; 0.05-0.2 mg/kg S.C., high responder subgroup
  response in PR test: no effect on response
5-HT2A receptor activity; 0.3 mg/kg I.P and higher
  signs of behavioral syndrome (WDS/BMC): significant signs of behavior syndrome
5-HT2A receptor activity; 0.03-0.1 mg/kg S.C.
  signs of behavioral syndrome (WDS/BMC): no signs of behavioral syndrome
Long Evans rats [3]; 0.1 mg/kg, low responder cohort
  session duration: 18.7+2.5 min
Long Evans rats [3]; [6]
  break point: no treatment group was significantly different to vehicle
  number of lever presses, session duration: no main effect of treatment
Long Evans rats [3]; 0.05-0.1 mg/kg pretreatment, low responder cohort N=24, relative to vehicle
  lever press and break point: increases in both measures
